From doi:10.1101/2022.09.13.507756v1 (biorxiv, 2022)
Where two headings read alike, the source gives them in different places.

Columns and labels:
AncCDT-5 [1] = details: 50 mM Na2HPO4, 25 °C, 100 nM enzyme
AncCDT-5 [2] = details: 50 mM Na2HPO4, 25 °C, 100 nM enzyme; prephenate dehydratase reaction

O=C(O)C(=O)CC1(C(=O)O)C=CC(O)C=C1 (centres unmarked) [prephenate]
Km (AncCDT-5 [1]): 178 ± 27.1 µM | Km (AncCDT-5 [2]): 169 ± 22.9 µM
